What was measured:
[1] = molecular target: T1, wt human LRRK2, catalytic site (Homo sapiens, UniProt Q5S007); test: TR-FRET LanthaScreen Tb Kinase Activity Assay, LRRK2 inhibition; format: biochemical; conditions: 2 nM wt human LRRK2, 400 nM peptide, 38 μM ATP
T1 construct: wt human LRRK2, catalytic site, catalytic site (ThermoFisher/USA); purchased ThermoFisher
Outline: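 Fluorescein-ERM (LRRKtide) peptide (400 nM) phosphorylated by 2 nM wt human LRRK2 catalytic site with 38 μM ATP in 1× Kinase Buffer A, 120 min at room temperature after 15 min compound–kinase preincubation. EDTA plus Tb-anti-pLRRKtide antibody added, read after 60 min; inhibition from TR-FRET emission ratios.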

[2] = system: Caco-2 cells; test: Caco-2 bidirectional permeability; format: in vitro ADME; conditions: for Caco-2 ER: Efflux Ratio=Papp(BA)/Papp(AB); for Caco-2 A2B (10^−6 cm/s): apical to basolateral; for Caco-2 A2B (10^−6 cm/s) / Caco-2 B2A (10^−6 cm/s): 2 hours, pH 7.4; for Caco-2 B2A (10^−6 cm/s): basolateral to apical
Outline: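 Caco-2 monolayers were grown 21–28 days on PET inserts and run in duplicate in HBSS with 10 mM HEPES, pH 7.4. Test compound was dosed bidirectionally at […] for 2 h at 37 °C; quantification was by LC-MS/MS. Papp and efflux ratio (B-A/A-B) were calculated, with lucifer yellow monolayer integrity checks.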

[3] = Human liver microsomal clearance (hLM Cl); format: in vitro ADME; conditions: values marked *: human liver microsomal Clearance
[4] = system: human hepatocyte; test: Human hepatocyte stability, predicted hepatic clearance (h-Hept CL predict); format: in vitro ADME; conditions: human hepatocytes, 0.5×10^6 cells/mL, 1 μM, values without asterisk
Outline: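 Cryopreserved human hepatocytes, 0.5×10^6 viable cells/mL in William's E/GlutaMAX, incubated with compound at 1 μM final, duplicates. Sampling at 0-120 min, LC/MS/MS parent loss gives t1/2, converted to CLint and scaled to predicted hepatic clearance (well-stirred model, fub assumed 1).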

T1 sequence (Q5S007 1879-2138 limits assumed): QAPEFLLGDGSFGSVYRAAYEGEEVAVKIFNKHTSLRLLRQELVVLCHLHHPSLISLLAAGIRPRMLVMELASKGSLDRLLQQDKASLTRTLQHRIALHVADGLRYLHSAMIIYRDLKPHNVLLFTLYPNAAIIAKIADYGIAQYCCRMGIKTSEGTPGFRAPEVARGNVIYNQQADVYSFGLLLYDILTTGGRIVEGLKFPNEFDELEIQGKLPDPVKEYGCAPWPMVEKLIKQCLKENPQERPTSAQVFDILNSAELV

| Structure (SMILES) | IC50 [1] [nM] | Caco-2 ER [2] | Caco-2 B2A (10^−6 cm/s) [2] | Caco-2 A2B (10^−6 cm/s) [2] | hLM Cl (mL/min/kg) [3] | hHep Cl (mL/min/kg) [4] |
| --- | --- | --- | --- | --- | --- | --- |
| Cc1n[nH]c2c1N=C(c1c(F)cccc1F)Nc1cnc(N3CCC[C@@](C)(C#N)C3)cc1-2 (single isomer, unassigned) [Example 12] | < 1 | L (L (Likely)”: ER≥2.5) | H (H (High permeability)”: A2B (B2A)>5) | M (M (Moderate permeability)”: 1≤A2B (B2A)≤5) | L* (L (Low Cl)”: Hep Cl (mL/min/kg)<6.3) |  |
| Fc1cccc(F)c1C1=Nc2cn[nH]c2-c2cc(N3CC[C@@H](C(F)F)C3)ncc2N1 (single isomer, unassigned) [Example 34] | < 1 | L (L (Likely)”: ER≥2.5) | H (H (High permeability)”: A2B (B2A)>5) | M (M (Moderate permeability)”: 1≤A2B (B2A)≤5) | I* (I (Intermediate Cl)”: 6.3≤Hep Cl (mL/min/kg)≤14.7) |  |
| Cc1n[nH]c2c1N=C(c1c(F)cccc1F)Nc1cnc(N3CCC(C)(C#N)CC3)cc1-2 [Example 17, 1-[8-(2,6-difluorophenyl)-5-methyl-3,4,7,9,12-pentazatricyclo[8.4.0.02,6]tetradeca-1(10),2(6),4,7,11,13-hexaen-13-y1]-4-methyl-piperidine-4-carbonitrile] | 1 to 100 | L (L (Likely)”: ER≥2.5) | H (H (High permeability)”: A2B (B2A)>5) | H (H (High permeability)”: A2B (B2A)>5) | I* (I (Intermediate Cl)”: 6.3≤Hep Cl (mL/min/kg)≤14.7) |  |
| Cc1n[nH]c2c1N=C(c1c(F)cccc1F)Nc1c-2cc(N2CCN(CCCF)CC2)nc1C [Example 32, 8-(2,6-difluorophenyl)-13-[4-(3-fluoropropyl)piperazin-1-y1]-5,11-dimethyl-3,4,7,9,12-pentazatricyclo[8.4.0.02,6]tetradeca-1(10),2(6),4,7,11,13-hexaene] | < 1 | L (L (Likely)”: ER≥2.5) | H (H (High permeability)”: A2B (B2A)>5) | M (M (Moderate permeability)”: 1≤A2B (B2A)≤5) | L* (L (Low Cl)”: Hep Cl (mL/min/kg)<6.3) |  |
| Cc1n[nH]c2c1N=C(c1c(F)cccc1F)Nc1c-2cc(N2CCOC3(COC3)C2)nc1C [Example 38, 8-(5-(2,6-difluorophenyl)-3,7-dimethyl-1,6-dihydropyrazolo[4,3-d]pyrido[4,3-f][1,3]diazepin-9-yl)-2,5-dioxa-8-azaspiro[3.5]nonane] | < 1 | L (L (Likely)”: ER≥2.5) | H (H (High permeability)”: A2B (B2A)>5) | M (M (Moderate permeability)”: 1≤A2B (B2A)≤5) | L* (L (Low Cl)”: Hep Cl (mL/min/kg)<6.3) |  |
| Cc1n[nH]c2c1N=C(c1c(F)cccc1F)Nc1cnc(N3CCC4(CC3)COC4)cc1-2 [Example 42, 7-(5-(2,6-difluorophenyl)-3-methyl-1,6-dihydropyrazolo[4,3-d]pyrido[4,3-f][1,3]diazepin-9-yl)-2-oxa-7-azaspiro[3.5]nonane] | 1 to 100 | L (L (Likely)”: ER≥2.5) | H (H (High permeability)”: A2B (B2A)>5) | M (M (Moderate permeability)”: 1≤A2B (B2A)≤5) | L* (L (Low Cl)”: Hep Cl (mL/min/kg)<6.3) |  |
| Cc1nc(N2CC3(COC3)C2)cc2c1NC(c1c(F)cccc1F)=Nc1cn[nH]c1-2 [Example 43, 6-(5-(2,6-difluorophenyl)-7-methyl-1,6-dihydropyrazolo[4,3-d]pyrido[4,3-f][1,3]diazepin-9-y1)-2-oxa-6-azaspiro[3.3]heptane] | 1 to 100 | L (L (Likely)”: ER≥2.5) | H (H (High permeability)”: A2B (B2A)>5) | M (M (Moderate permeability)”: 1≤A2B (B2A)≤5) | L* (L (Low Cl)”: Hep Cl (mL/min/kg)<6.3) |  |

Second part, led by results:

| IC50 [1] [nM] | Caco-2 ER [2] | Caco-2 B2A (10^−6 cm/s) [2] | Structure (SMILES) | Caco-2 A2B (10^−6 cm/s) [2] | hLM Cl (mL/min/kg) [3] | hHep Cl (mL/min/kg) [4] |
| --- | --- | --- | --- | --- | --- | --- |
| 1 to 100 | L (L (Likely)”: ER≥2.5) | H (H (High permeability)”: A2B (B2A)>5) | Cc1n[nH]c2c1N=C(c1c(F)cccc1F)Nc1c-2cc(N2CCO[C@H]([C@@H](C)O)C2)nc1C [Example 45, (R)-1-((S)-4-(5-(2,6-difluorophenyl)-3,7-dimethyl-1,6-dihydropyrazolo[4,3-d]pyrido[4,3-f][1,3]diazepin-9-yl)morpholin-2-yl)ethan-1-ol] | L (L (Low permeability)”: A2B (B2A)<1) | L* (L (Low Cl)”: Hep Cl (mL/min/kg)<6.3) |  |
| < 1 | L (L (Likely)”: ER≥2.5) | H (H (High permeability)”: A2B (B2A)>5) | Cc1n[nH]c2c1N=C(c1c(F)cccc1F)Nc1c-2cc(N2CCS(=O)(=O)CC2)nc1C [Example 46, 4-(5-(2,6-difluorophenyl)-3,7-dimethyl-1,6-dihydropyrazolo[4,3-d]pyrido[4,3-f][1,3]diazepin-9-yl)thiomorpholine 1,1-dioxide] | L (L (Low permeability)”: A2B (B2A)<1) | L* (L (Low Cl)”: Hep Cl (mL/min/kg)<6.3) |  |
| 1 to 100 | L (L (Likely)”: ER≥2.5) | H (H (High permeability)”: A2B (B2A)>5) | Cc1n[nH]c2c1N=C(c1c(F)cccc1F)Nc1cnc(N3CCC(C#N)CC3)cc1-2 [Example 48, 1-(5-(2,6-difluorophenyl)-3-methyl-1,6-dihydropyrazolo[4,3-d]pyrido[4,3-f][1,3]diazepin-9-yl)piperidine-4-carbonitrile] | M (M (Moderate permeability)”: 1≤A2B (B2A)≤5) | I* (I (Intermediate Cl)”: 6.3≤Hep Cl (mL/min/kg)≤14.7) |  |
| 1 to 100 | L (L (Likely)”: ER≥2.5) | H (H (High permeability)”: A2B (B2A)>5) | Cc1cc(F)c(C2=Nc3cn[nH]c3-c3cc(N4CCOCC4)ncc3N2)c(F)c1 [Example 51, 4-(5-(2,6-difluoro-4-methylphenyl)-1,6-dihydropyrazolo[4,3-d]pyrido[4,3-f][1,3]diazepin-9-yl)morpholine] | H (H (High permeability)”: A2B (B2A)>5) |  | I (I (Intermediate Cl)”: 6.3≤Hep Cl (mL/min/kg)≤14.7) |
| < 1 | L (L (Likely)”: ER≥2.5) | H (H (High permeability)”: A2B (B2A)>5) | N#C[C@@H]1CCCN(c2cc3c(cn2)NC(c2c(F)cccc2F)=Nc2c(Cl)n[nH]c2-3)C1 [Example 52, (R)-1-(3-chloro-5-(2,6-difluorophenyl)-1,6-dihydropyrazolo[4,3-d]pyrido[4,3-f][1,3]diazepin-9-y1)piperidine-3-carbonitrile] | M (M (Moderate permeability)”: 1≤A2B (B2A)≤5) |  | I (I (Intermediate Cl)”: 6.3≤Hep Cl (mL/min/kg)≤14.7) |
| < 1 | L (L (Likely)”: ER≥2.5) | H (H (High permeability)”: A2B (B2A)>5) | Fc1cccc(F)c1C1=Nc2c(Cl)n[nH]c2-c2cc(N3CC4CCC(C3)O4)ncc2N1 [Example 53, 3-(3-chloro-5-(2,6-difluorophenyl)-1,6-dihydropyrazolo[4,3-d]pyrido[4,3-f][1,3]diazepin-9-yl)-8-oxa-3-azabicyclo[3.2.1]octane] | M (M (Moderate permeability)”: 1≤A2B (B2A)≤5) |  | I (I (Intermediate Cl)”: 6.3≤Hep Cl (mL/min/kg)≤14.7) |

Reference: patent publication US20240228493A1, “LRRK2 INHIBITORS AND USES THEREOF” (NEURON23, ICN., priority 2022, published 2024)
